For this assay, the target named is T1, BtGH99 (Bacteroides thetaiotaomicron, UniProt Q8A109).
T1 sequence (Q8A109 18-382): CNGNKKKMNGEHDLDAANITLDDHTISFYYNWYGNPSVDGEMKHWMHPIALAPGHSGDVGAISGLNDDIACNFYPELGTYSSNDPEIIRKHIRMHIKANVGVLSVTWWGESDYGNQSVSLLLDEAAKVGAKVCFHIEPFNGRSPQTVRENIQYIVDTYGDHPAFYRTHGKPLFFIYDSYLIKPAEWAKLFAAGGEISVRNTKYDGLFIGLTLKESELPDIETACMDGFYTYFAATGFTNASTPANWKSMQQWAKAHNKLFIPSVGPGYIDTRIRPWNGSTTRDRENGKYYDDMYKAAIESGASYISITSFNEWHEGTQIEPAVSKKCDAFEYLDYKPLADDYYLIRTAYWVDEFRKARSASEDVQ
Nature of the assay: isothermal titration calorimetry. The assay is classed as binding.

Broadly, the Kd is a measure of binding affinity in units of concentration. A high value points to a looser complex.

`N[C@@H]1CN[C@H](CO)[C@@H](O)[C@@H]1O[C@H]1O[C@H](CO)[C@@H](O)[C@H](O)[C@@H]1O` [compound 1, α‐D‐Mannopyranosyl‐(1→3)‐2‐amino‐1,2,5‐trideoxy‐1,5‐imino‐D‐mannitol] had a Kd of 97.7 ± 4.9 µM.

Source of the values: article PMC6001782 (Chemistry (Weinheim an Der Bergstrasse, Germany), 2018).
